The series can be described thus: Henry solubility constant Hcp at 298.15 K (mol/(m3 Pa)). The conditions noted are these: reference: Albanese et al. (1987).

Consider `CC(Br)CBr` (stereo not given) [1,2-dibromopropane], for which the “Henry solubility constant Hcp” value stood at 0.0053.
On to `ClCCCCCl` [1,4-dichlorobutane], for which the “Henry solubility constant Hcp” value is 0.012.
To `C=C(Cl)CCl` [2,3-dichloropropene] belongs 0.0035; to `Cl/C=C/CCl` [trans-1,3-dichloropropene], 0.0056.
To `Cl/C=C\CCl` [cis-1,3-dichloropropene] belongs 0.0042.
To `ClC/C=C/CCl` [(E)-1,4-dichloro-2-butene] belongs 0.017; to `ClC/C=C\CCl` [(Z)-1,4-dichloro-2-butene], 0.01; to `ClCCCCl` [1,3-dichloropropane], 0.0085.
On to `ClCC(Cl)CCl` [1,2,3-trichloropropane], for which the “Henry solubility constant Hcp” value was 0.033.
Consider `CC(Cl)CCl` (stereo not given) [1,2-dichloropropane], for which the “Henry solubility constant Hcp” value was determined as 0.0049.

(Values after Sander's compilation of Henry's law constants (doi:10.1080/09593338709384529).)
